Experimental data from patent US12637464B2, “Tetracyclic compounds for treating brain disorders” (The Regents of the University of California, priority 2021, dated 2026).

Columns and labels:
[1] = tested on: C57BL/6J mice; experiment: Amphetamine induced locomotion; format: in vivo, mouse; settings: pretreatment 1 mg/kg
Experimental: Amphetamine Induced Locomotion. The amphetamine-induced hyperlocomotion assay was performed using male and female C57BL/6J mice that were approximately 8 weeks old at the time of the experiments. Animals were first placed in the test arena (40 cm×40 cm) for 15 min to obtain a basal reading of locomotion and habituate them to the testing arena. Next, animals were administered (+)-JRT (1 mg/kg) or VEH (2.5 mL/kg, i.p) and placed back in the test arena. After 15 min, the animals were administered D-amphetamine (3 mg/kg) or VEH (2.5 mL/kg) and placed back in the test arena for 60 minutes. Locomotion during the entire experiment was quantified using ANYmaze Video Tracking System, version 7.07 (Stoelting Co.).

[2] = tested on: C57BL/6J mice; experiment: 4-odor discrimination and reversal; format: in vivo, mouse; settings: 1 mg/kg IP
Experimental: 4-Odor Discrimination and Reversal. A 4-odor discrimination and reversal behavioral assay was performed as described previously with slight modifications. Food restriction was begun five days before the discrimination and reversal tests to reduce animals' body weight to ˜80% of their starting weight. A total of 31 C57BL/6J mice 2-3 months of age were used in this assay. Eleven mice (5 males, 6 females) served as VEH/unstressed controls, 10 animals (4 males, 6 females) as a VEH/stress group, and 10 animals (4 males, 6 females) as a treatment/stress group. Both the VEH/stress and […] groups were subjected to a 7-day unpredictable mild stress protocol using previously validated stressors. Two stressors were delivered during the day, with additional overnight stressors on 4 of the days. […]

In the case of `CCN(CC)C(=O)[C@@H]1C=C2c3cccc4ccn(c34)C[C@H]2N(C)C1` [(+)-JRT], the “AMPH-induced hyperlocomotion, female mice” value [1] was “can block”, the stimulus discrimination ([2]; 4-odor discrimination phase, stressed mice) was “does not impact stimulus discrimination” and the “cognitive deficits induced by unpredictable mild stress (reversal)” value ([2]; reversal phase, after 7-day unpredictable mild stress) was “rescues cognitive deficits induced by unpredictable mild stress”.
